# Assay results taken from ChEMBL document CHEMBL1137493, “Synthesis and potent antitumor activity of new arylamino derivatives of nor-beta-lapachone and nor-alpha-lapachone” (Bioorg Med Chem, 2007).
# Legend:
# [1] = Toxicity assessed as hemolytic activity against mouse erythrocyte; type: cell-based; conditions: mouse erythrocytes
# HCT-8 = experiment: Cytotoxicity against human HCT8 cells after 72 hrs by MTT assay; type: functional, cell-based; conditions: HCT-8, 72 h
# HL-60 = experiment: Cytotoxicity against human HL60 cells after 72 hrs by MTT assay; type: functional, cell-based; conditions: HL-60, 72 h
# MDA-MB-435 = experiment: Cytotoxicity against human MDA-MB-435 cells after 72 hrs by MTT assay; type: functional, cell-based; conditions: MDA-MB-435, 72 h
# SF-295 = experiment: Cytotoxicity against human SF295 cells after 72 hrs by MTT assay; type: functional, cell-based; conditions: SF-295, 72 h
# L929 = experiment: Cytotoxicity against mouse L929 cells after 72 hrs by MTT assay; type: cell-based; conditions: L929, 72 h
# PC-3 = experiment: Cytotoxicity against human PC3 cells after 72 hrs by MTT assay; type: cell-based; conditions: PC-3, 72 h
# B16 = experiment: Cytotoxicity against mouse B16 cells after 72 hrs by MTT assay; type: functional, cell-based; conditions: B16, 72 h
Structure (SMILES),EC50 [1] [µg/mL],IC50 (HCT-8) [µg/mL],IC50 (HL-60) [µg/mL],IC50 (MDA-MB-435) [µg/mL],IC50 (SF-295) [µg/mL],IC50 (L929) [µg/mL],IC50 (PC-3) [µg/mL],IC50 (B16) [µg/mL]
CC1(C)CCC2=C(O1)c1ccccc1C(=O)C2=O [LAPACHONE],> 200,0.2,0.4,0.06,0.22,,,
CC1(C)OC2=C(C(=O)C(=O)c3ccccc32)C1Nc1cccc([N+](=O)[O-])c1 (stereo not given),> 200,0.64,0.33,0.23,0.5,0.42,0.41,0.43
CC1(C)OC2=C(C(=O)C(=O)c3ccccc32)C1Nc1cccc(Cl)c1 (stereo not given),> 200,0.51,0.39,0.17,0.36,1.16,0.49,0.56
CC1(C)OC2=C(C(=O)C(=O)c3ccccc32)C1Nc1ccc(F)cc1 (stereo not given),> 200,0.51,0.32,0.12,0.59,0.52,0.31,0.42
CC1(C)OC2=C(C(=O)c3ccccc3C2=O)C1Nc1ccccc1 (stereo not given),> 200,1.43,2.99,0.89,2.52,3.08,1.34,1
CC1(C)CC2=C(O1)c1ccccc1C(=O)C2=O [NOR-BETA-LAPACHONE],> 200,0.31,0.4,0.07,0.36,,,
COc1cccc2c1C(=O)c1c(O)c3c(c(O)c1C2=O)C[C@@](O)(C(=O)CO)C[C@@H]3O[C@H]1C[C@H](N)[C@H](O)[C@H](C)O1 [DOXORUBICIN],,0.04,,,0.25,,0.24,0.03
CC1(C)OC2=C(C(=O)C(=O)c3ccccc32)C1Nc1ccccc1 (stereo not given),> 200,0.99,0.66,0.3,0.89,2.72,0.31,0.74
Cc1ccc(C)c(NC2C3=C(OC2(C)C)c2ccccc2C(=O)C3=O)c1 (stereo not given),> 200,1.59,1.27,0.27,2.08,> 5,0.32,3.03
CC1(C)OC2=C(C(=O)C(=O)c3ccccc32)C1Nc1cccc(Br)c1 (stereo not given),> 200,0.7,0.5,0.2,0.93,1.02,0.46,0.48
